Measurements as given in PubChem BioAssay AID248 (DTP/NCI, 2004).
Where “and” joins values, the source holds several entries; their conditions need not be identical. Equal entries are not always repeated. Inconclusive results and toxic doses are left out.

Tested on: L1210 leukemia ip in BDF1 mice, survival T/C
Test: NCI In Vivo Anticancer Drug Screen. Data for tumor model L1210 Leukemia (intraperitoneal) in B6D2F1 (BDF1) mice
Settings: higher = longer survival
Procedure, shortened: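 Tumor cells were implanted, animals were treated, and survival was followed. The result divides the treated measurement by the vehicle-control measurement.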

[1] = endpoint: mean survival time, dose: 100.0 mg/kg/injection, schedule: Q01DX009 (ip), vehicle: saline with Tween-80
[2] = endpoint: mean survival time, dose: 200.0 mg/kg/injection, schedule: Q01DX009 (ip), vehicle: saline with Tween-80
[3] = endpoint: mean survival time, dose: 100.0 mg/kg/injection, schedule: Q01DX009 (ip), vehicle: Klucel (hydroxypropylcellulose) (HPC)

Compound: O=c1ccs[nH]1
- T/C (endpoint: mean survival time, dose: 12.5 mg/kg/injection, schedule: Q04DX003 (ip), vehicle: saline with Tween-80): 106 % of control
- T/C (endpoint: mean survival time, dose: 25.0 mg/kg/injection, schedule: Q04DX003 (ip), vehicle: saline with Tween-80): 98 % of control

Compound: S=c1nc[nH]c2c1ncn2/N=C/c1ccccc1
- T/C (endpoint: mean survival time, dose: 100.0 mg/kg/injection, schedule: Q01DX001 (ip), vehicle: other): 96 % of control
- T/C (endpoint: mean survival time, dose: 200.0 mg/kg/injection, schedule: Q01DX001 (ip), vehicle: other): 90 % of control
- T/C (endpoint: mean survival time, dose: 400.0 mg/kg/injection, schedule: Q01DX001 (ip), vehicle: other): 96 % of control

Compound: COC(CN(C)C(=O)NC1CCCCC1)OC
- T/C [1]: 102 % of control
- T/C [2]: 100 % of control

Compound: C1=Cc2c3c(c4c(c2C1)C=CC4)CC=C3
- T/C (endpoint: mean survival time, dose: 25.0 mg/kg/injection, schedule: Q01DX001 (ip), vehicle: Klucel (hydroxypropylcellulose) (HPC)): 93 % of control
- T/C (endpoint: mean survival time, dose: 50.0 mg/kg/injection, schedule: Q01DX001 (ip), vehicle: Klucel (hydroxypropylcellulose) (HPC)): 97 % of control
- T/C (endpoint: mean survival time, dose: 100.0 mg/kg/injection, schedule: Q01DX001 (ip), vehicle: Klucel (hydroxypropylcellulose) (HPC)): 101 % of control
- T/C [3]: 95 % of control
- T/C (endpoint: mean survival time, dose: 200.0 mg/kg/injection, schedule: Q01DX001 (ip), vehicle: Klucel (hydroxypropylcellulose) (HPC)): 92 % of control
- T/C (endpoint: mean survival time, dose: 200.0 mg/kg/injection, schedule: Q01DX009 (ip), vehicle: Klucel (hydroxypropylcellulose) (HPC)): 88 % of control
- T/C (endpoint: mean survival time, dose: 400.0 mg/kg/injection, schedule: Q01DX001 (ip), vehicle: Klucel (hydroxypropylcellulose) (HPC)): 93 % of control
- T/C (endpoint: mean survival time, dose: 400.0 mg/kg/injection, schedule: Q01DX009 (ip), vehicle: Klucel (hydroxypropylcellulose) (HPC)): 95 % of control

Compound: COc1ccccc1OC(=O)CCl
- T/C (endpoint: mean survival time, dose: 25.0 mg/kg/injection, schedule: Q01DX009 (ip), vehicle: saline with Tween-80): 90 % of control
- T/C (endpoint: mean survival time, dose: 50.0 mg/kg/injection, schedule: Q01DX009 (ip), vehicle: saline with Tween-80): 93 % of control
- T/C [1]: 93 % of control

Compound: CN1C2CCC1CN(Cc1ccccc1)C2
- T/C (endpoint: mean survival time, dose: 12.5 mg/kg/injection, schedule: Q01DX009 (ip), vehicle: saline): 103 % of control
- T/C (endpoint: mean survival time, dose: 12.5 mg/kg/injection, schedule: Q04DX003 (ip), vehicle: saline): 97 % of control
- T/C (endpoint: mean survival time, dose: 25.0 mg/kg/injection, schedule: Q01DX009 (ip), vehicle: saline): 101 % of control
- T/C (endpoint: mean survival time, dose: 25.0 mg/kg/injection, schedule: Q04DX003 (ip), vehicle: saline): 101 % of control
- T/C (endpoint: mean survival time, dose: 50.0 mg/kg/injection, schedule: Q01DX009 (ip), vehicle: saline): 101 % of control
- T/C (endpoint: mean survival time, dose: 50.0 mg/kg/injection, schedule: Q04DX003 (ip), vehicle: saline): 98 % of control

Compound: CC[C@H]1CN2CCc3cc(OC)c(OC)cc3[C@@H]2C[C@@H]1C[C@H]1NCCc2cc(O)c(OC)cc21
- T/C (endpoint: mean survival time, dose: 0.5 mg/kg/injection, schedule: Q01DX015 (ip), vehicle: saline): 105 % of control and 119 % of control
- T/C (endpoint: mean survival time, dose: 1.0 mg/kg/injection, schedule: Q01DX009 (ip), vehicle: saline): 116 % of control
- T/C (endpoint: mean survival time, dose: 1.0 mg/kg/injection, schedule: Q01DX015 (ip), vehicle: saline): 115 % of control and 120 % of control
- T/C (endpoint: mean survival time, dose: 2.0 mg/kg/injection, schedule: Q01DX009 (ip), vehicle: saline): 115 % of control
- T/C (endpoint: mean survival time, dose: 2.0 mg/kg/injection, schedule: Q## X003 (ip), vehicle: saline): 104 % of control
- T/C (endpoint: mean survival time, dose: 2.0 mg/kg/injection, schedule: Q## X024 (ip), vehicle: saline): 114 % of control
- T/C (endpoint: mean survival time, dose: 3.0 mg/kg/injection, schedule: Q01DX001 (oral), vehicle: saline): 107 % of control
- T/C (endpoint: mean survival time, dose: 3.75 mg/kg/injection, schedule: Q01DX015 (ip), vehicle: saline): 153 % of control
- T/C (endpoint: mean survival time, dose: 4.0 mg/kg/injection, schedule: Q01DX001 (ip), vehicle: saline): 113 % of control
- T/C (endpoint: mean survival time, dose: 4.0 mg/kg/injection, schedule: Q01DX009 (ip), vehicle: saline): 115 % of control
- T/C (endpoint: mean survival time, dose: 4.0 mg/kg/injection, schedule: Q01DX015 (ip), vehicle: saline): 150 % of control
- T/C (endpoint: mean survival time, dose: 4.0 mg/kg/injection, schedule: Q04DX003 (ip), vehicle: saline): 116 % of control
- T/C (endpoint: mean survival time, dose: 4.0 mg/kg/injection, schedule: Q## X002 (ip), vehicle: saline): 103 % of control
- T/C (endpoint: mean survival time, dose: 4.0 mg/kg/injection, schedule: Q## X003 (ip), vehicle: saline): 103 % of control
- T/C (endpoint: mean survival time, dose: 4.0 mg/kg/injection, schedule: Q## X008 (ip), vehicle: saline): 116 % of control
- T/C (endpoint: mean survival time, dose: 4.0 mg/kg/injection, schedule: Q## X016 (ip), vehicle: saline): 93 % of control
- T/C (endpoint: mean survival time, dose: 4.0 mg/kg/injection, schedule: Q## X024 (ip), vehicle: saline): 122 % of control
- T/C (endpoint: mean survival time, dose: 6.0 mg/kg/injection, schedule: Q01DX001 (oral), vehicle: saline): 103 % of control
- T/C (endpoint: mean survival time, dose: 8.0 mg/kg/injection, schedule: Q01DX001 (ip), vehicle: saline): 111 % of control
- T/C (endpoint: mean survival time, dose: 8.0 mg/kg/injection, schedule: Q01DX005 (ip), vehicle: saline): 157 % of control
- T/C (endpoint: mean survival time, dose: 8.0 mg/kg/injection, schedule: Q01DX009 (ip), vehicle: saline): 112 % of control and 86 % of control
- T/C (endpoint: mean survival time, dose: 8.0 mg/kg/injection, schedule: Q04DX003 (ip), vehicle: saline): 118 % of control
- T/C (endpoint: mean survival time, dose: 8.0 mg/kg/injection, schedule: Q## X002 (ip), vehicle: saline): 119 % of control
- T/C (endpoint: mean survival time, dose: 8.0 mg/kg/injection, schedule: Q## X003 (ip), vehicle: saline): 123 % of control
- T/C (endpoint: mean survival time, dose: 8.0 mg/kg/injection, schedule: Q## X008 (ip), vehicle: saline): 111 % of control
- T/C (endpoint: mean survival time, dose: 8.0 mg/kg/injection, schedule: Q## X016 (ip), vehicle: saline): 103 % of control
- T/C (endpoint: mean survival time, dose: 8.0 mg/kg/injection, schedule: Q## X024 (ip), vehicle: saline): 101 % of control
- T/C (endpoint: mean survival time, dose: 12.0 mg/kg/injection, schedule: Q01DX001 (oral), vehicle: saline): 96 % of control
- T/C (endpoint: mean survival time, dose: 15.0 mg/kg/injection, schedule: Q01DX015 (ip), vehicle: saline): 104 % of control
- T/C (endpoint: mean survival time, dose: 16.0 mg/kg/injection, schedule: Q01DX001 (ip), vehicle: saline): 118 % of control
- T/C (endpoint: mean survival time, dose: 16.0 mg/kg/injection, schedule: Q01DX005 (ip), vehicle: saline): 162 % of control
- T/C (endpoint: mean survival time, dose: 16.0 mg/kg/injection, schedule: Q01DX009 (ip), vehicle: saline): 123 % of control
- T/C (endpoint: mean survival time, dose: 16.0 mg/kg/injection, schedule: Q01DX015 (ip), vehicle: saline): 102 % of control
- T/C (endpoint: mean survival time, dose: 16.0 mg/kg/injection, schedule: Q## X002 (ip), vehicle: saline): 112 % of control
- T/C (endpoint: mean survival time, dose: 16.0 mg/kg/injection, schedule: Q## X016 (ip), vehicle: saline): 107 % of control
- T/C (endpoint: mean survival time, dose: 16.0 mg/kg/injection, schedule: Q## X024 (ip), vehicle: saline): 86 % of control
- T/C (endpoint: mean survival time, dose: 24.0 mg/kg/injection, schedule: Q01DX001 (oral), vehicle: saline): 102 % of control
- T/C (endpoint: mean survival time, dose: 32.0 mg/kg/injection, schedule: Q01DX001 (ip), vehicle: saline): 111 % of control
- T/C (endpoint: mean survival time, dose: 32.0 mg/kg/injection, schedule: Q04DX003 (ip), vehicle: saline): 123 % of control
- T/C (endpoint: mean survival time, dose: 48.0 mg/kg/injection, schedule: Q01DX001 (oral), vehicle: saline): 121 % of control
- T/C (endpoint: mean survival time, dose: 64.0 mg/kg/injection, schedule: Q01DX001 (ip), vehicle: saline): 118 % of control
- T/C (endpoint: median survival time, dose: 4.0 mg/kg/injection, schedule: Q04DX003 (ip), vehicle: alkali diluted with saline): 106 % of control
- T/C (endpoint: median survival time, dose: 8.0 mg/kg/injection, schedule: Q04DX003 (ip), vehicle: alkali diluted with saline): 113 % of control
- T/C (endpoint: median survival time, dose: 16.0 mg/kg/injection, schedule: Q04DX003 (ip), vehicle: alkali diluted with saline): 121 % of control

Compound: O=[N+]([O-])/C=C/c1ccc([N+](=O)[O-])cc1
- T/C (endpoint: mean survival time, dose: 6.25 mg/kg/injection, schedule: Q01DX005 (ip), vehicle: saline with Tween-80): 110 % of control
- T/C (endpoint: mean survival time, dose: 12.5 mg/kg/injection, schedule: Q01DX005 (ip), vehicle: saline with Tween-80): 104 % of control
- T/C (endpoint: mean survival time, dose: 25.0 mg/kg/injection, schedule: Q01DX005 (ip), vehicle: saline with Tween-80): 114 % of control
- T/C (endpoint: mean survival time, dose: 50.0 mg/kg/injection, schedule: Q01DX009 (ip), vehicle: Klucel (hydroxypropylcellulose) (HPC)): 93 % of control
- T/C [3]: 97 % of control
- T/C (endpoint: mean survival time, dose: 100.0 mg/kg/injection, schedule: Q04DX003 (ip), vehicle: Klucel (hydroxypropylcellulose) (HPC)): 96 % of control
- T/C (endpoint: mean survival time, dose: 200.0 mg/kg/injection, schedule: Q04DX003 (ip), vehicle: Klucel (hydroxypropylcellulose) (HPC)): 104 % of control

Compound: CN(C)CCCn1nc(-c2ccccc2)oc1=O
- T/C (endpoint: mean survival time, dose: 75.0 mg/kg/injection, schedule: Q01DX001 (ip), vehicle: saline): 96 % of control
- T/C (endpoint: mean survival time, dose: 150.0 mg/kg/injection, schedule: Q01DX001 (ip), vehicle: saline): 87 % of control

Compound: C1=CCC(OC2CCCCO2)=CC1 (stereo not drawn)
- T/C [1]: 96 % of control
- T/C [2]: 94 % of control
- T/C (endpoint: mean survival time, dose: 400.0 mg/kg/injection, schedule: Q01DX009 (ip), vehicle: saline with Tween-80): 87 % of control

Compound: CCCCNc1nc(N)nc(N)c1N=Nc1ccc(Cl)cc1
- T/C (endpoint: mean survival time, dose: 100.0 mg/kg/injection, schedule: Q01DX001 (ip), vehicle: carboxymethylcellulose (CMC)): 101 % of control
- T/C (endpoint: mean survival time, dose: 200.0 mg/kg/injection, schedule: Q01DX001 (ip), vehicle: carboxymethylcellulose (CMC)): 96 % of control
- T/C (endpoint: mean survival time, dose: 400.0 mg/kg/injection, schedule: Q01DX001 (ip), vehicle: carboxymethylcellulose (CMC)): 98 % of control
